Measured values: patent publication US11858935B1, “Pyrrolo[2,3-c][1,7]naphthyridine-2-carboxylic acid compounds as CK2 inhibitors” (KING FAISAL UNIVERSITY, priority 2023, dated 2024)

Legend:
MCF7 (breast) = assay: In vitro cytotoxic activity (MTT) assay, MCF7; format: cell-based; conditions: Homo sapiens; MCF7 (breast) cells, exposed 96 hours; read-out: IC50, concentration eliciting 50% inhibition of cell proliferation
Procedure: (§1) Compounds 1-16 were screened for their in vitro cytotoxic activity utilizing a 3-(4,5-dimethyl-thiazol-2-yl)-2,5-diphenyltetrazolium bromide (MTT) assay against selected cancer human cell lines consisting of PC3 (prostate), HCT116 (colon), A375 (melanoma), H1299 (lung), MIAPaCa-2 (pancreas), HL60 (leukemia), MCF7 (breast), MDA-MB-231 (breast) (T. Mosmann, J. Immunol. Meth., 1983, 65, 55-63). The cells were cultured at 37° C. in RMPI1640 medium supplemented with 10% fetal bovine serum, 50 IU/mL penicillin, and 50 μg/mL streptomycin in a 5% CO2 incubator. All cells were sub-cultured 3 times/week by trypsinisation. Viable cells were seeded and allowed to adhere for 12 h before a test drug was added in 96-well plates at an initial density of 1.0×10^5 cells/mL. Tumor cell lines were separately exposed to various concentrations of the tested compounds followed by incubation at a temperature of 37° C. during 96 h inside a medium of fresh RMPI 1640. Cells were subsequently incubated at 37° C. using MTT at 0.5 mg/mL during 4 h. After removal of supernatant, formazan crystals were dissolved in isopropanol and the optical density was measured at 570 nm. CX-4945 was used as a positive control.

MIAPaCa-2 (pancreas) = assay: In vitro cytotoxic activity (MTT) assay, MIAPaCa-2; format: cell-based; conditions: Homo sapiens, MIA PaCa-2; MIAPaCa-2 (pancreas) cells, exposed 96 hours; read-out: IC50, concentration eliciting 50% inhibition of cell proliferation
Procedure: as §1

MDA-MB-231 (breast) = assay: In vitro cytotoxic activity (MTT) assay, MDA-MB-231; format: cell-based; conditions: Homo sapiens; MDA-MB-231 (breast) cells, exposed 96 hours; read-out: IC50, concentration eliciting 50% inhibition of cell proliferation
Procedure: as §1

HCT116 (colon) = assay: In vitro cytotoxic activity (MTT) assay, HCT116; format: cell-based; conditions: Homo sapiens, HCT-116; HCT116 (colon) cells, exposed 96 hours; read-out: IC50, concentration eliciting 50% inhibition of cell proliferation
Procedure: as §1

[1] = molecular target: T1, recombinant human CK2 (RRββ-holoenzyme) (Homo sapiens, UniProt P68400); assay: CK2 Kinase Assay (33P-ATP, substrate peptide RRRDDDSDDD); format: biochemical; conditions: final ATP concentration 15 μM, 10 min at 30° C.; read-out: protein kinase CK2 IC50
T1 construct: purchased Millipore
T1 sequence (P68400 whole entry): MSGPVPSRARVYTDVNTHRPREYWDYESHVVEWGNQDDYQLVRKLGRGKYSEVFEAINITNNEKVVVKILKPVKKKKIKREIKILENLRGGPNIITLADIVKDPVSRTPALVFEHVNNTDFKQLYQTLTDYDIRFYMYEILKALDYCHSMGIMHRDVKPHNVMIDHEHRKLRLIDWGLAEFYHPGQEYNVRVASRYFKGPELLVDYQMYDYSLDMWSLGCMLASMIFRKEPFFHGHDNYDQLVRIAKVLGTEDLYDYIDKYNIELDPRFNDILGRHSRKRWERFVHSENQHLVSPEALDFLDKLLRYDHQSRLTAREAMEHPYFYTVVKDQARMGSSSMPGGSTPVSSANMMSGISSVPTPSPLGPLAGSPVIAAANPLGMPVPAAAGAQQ
T1 sequence (P67870 whole entry partner): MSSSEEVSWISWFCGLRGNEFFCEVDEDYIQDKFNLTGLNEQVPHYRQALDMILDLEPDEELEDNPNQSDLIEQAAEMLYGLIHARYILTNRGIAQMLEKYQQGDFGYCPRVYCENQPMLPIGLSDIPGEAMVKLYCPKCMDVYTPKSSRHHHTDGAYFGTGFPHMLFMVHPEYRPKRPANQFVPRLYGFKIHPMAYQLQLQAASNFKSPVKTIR
Procedure: CK2 Kinase Assay was conducted using the protocol as described in Pierre F. et al; J. Med. Chem. 2011, 54, 635-654. The tested compounds in aqueous solution were added at a volume of 10 μL to a reaction mixture comprising 10 μL of assay dilution buffer (ADB; 20 mM MOPS, pH 7.2, 25 mM β-glycerol phosphate, 5 mM EGTA, 1 mM sodium orthovanadate, and 1 mM dithiothreitol), 10 μL of substrate peptide (RRRDDDSDDD, dissolved in ADB at a concentration of 1 mM), 10 μL of recombinant human CK2 (RRββ-holoenzyme, 25 ng dissolved in ADB; Millipore). Reactions were initiated by the addition of 10 μL of ATP solution (90% 75 mM MgCl2, 75 μM ATP (final ATP concentration:15 μM) dissolved in ADB; 10% [γ-33P] ATP (stock 1 mCi/100 μL; 3000 Ci/mmol (Perkin-Elmer) and maintained for 10 min at 30° C. The reactions were quenched with 100 μL of 0.75% phosphoric acid and then transferred to and filtered through a phosphor cellulose filter plate (Millipore). After washing each well five times with 0.75% phosphoric acid, the plate was dried under vacuum for 5 min and, following the addition of 15 μL of scintillation fluid to each well, the residual radioactivity was measured using a Wallac […]. The IC50 values were derived from eight concentrations of test inhibitors.

PC3 (prostate) = assay: In vitro cytotoxic activity (MTT) assay, PC3; format: cell-based; conditions: Homo sapiens, Prostate cell; PC3 (prostate) cells, exposed 96 hours; read-out: IC50, concentration eliciting 50% inhibition of cell proliferation
Procedure: as §1

A375 (melanoma) = assay: In vitro cytotoxic activity (MTT) assay, A375; format: cell-based; conditions: Homo sapiens, A-375; A375 (melanoma) cells, exposed 96 hours; read-out: IC50, concentration eliciting 50% inhibition of cell proliferation
Procedure: as §1

H1299 (lung) = assay: In vitro cytotoxic activity (MTT) assay, H1299; format: cell-based; conditions: Homo sapiens, NCI-H1299; H1299 (lung) cells, exposed 96 hours; read-out: IC50, concentration eliciting 50% inhibition of cell proliferation
Procedure: as §1

HL60 (leukemia) = assay: In vitro cytotoxic activity (MTT) assay, HL60; format: cell-based; conditions: Homo sapiens, HL-60; HL60 (leukemia) cells, exposed 96 hours; read-out: IC50, concentration eliciting 50% inhibition of cell proliferation
Procedure: as §1

IC50 [1]: 26 nM
Compound: O=C(O)c1cc2c([nH]1)c(Nc1cccc(Cl)c1)nc1cnccc12 [Compound 1, 4-((3-chlorophenyl)amino)-3H-pyrrolo[2,3-c][1,7]naphthyridine-2-carboxylic acid]
IC50 (MCF7 (breast)): 4200 nM
IC50 (MIAPaCa-2 (pancreas)): 1700 nM
IC50 (MDA-MB-231 (breast)): 3600 nM
IC50 (HCT116 (colon)): 1800 nM
IC50 (PC3 (prostate)): 1500 nM
IC50 (A375 (melanoma)): 2300 nM
IC50 (H1299 (lung)): 1400 nM
IC50 (HL60 (leukemia)): 3100 nM
